Experimental data reported in patent US5776944A, “7-(4-aminomethyl-3-methyloxyiminopyrroplidin-1-yl)-1-cyclopropyl-6-flu oro-4-oxo-1,4-dihydro-1,8-naphthyridine-3-carboxylic acid and the process for the preparation thereof” (LG Chemical Ltd., priority 1994, dated 1998).
Values after ≈ are worked out from the molar mass of the structure shown. “Also recorded” adds a separate entry of the source.

Assays:
[1] = Equilibrium moisture content determination of hydrates; type: physicochemical
Method: Six saturated aqueous salt solutions were introduced into each desiccator to control the inner relative humidity to a specific value as represented in the following Table 28. Then, equilibrium moisture contents of 3 hydrate and 1.5 hydrate prepared in Examples 205 and 206, respectively, were determined at several relative humidities.
Specifically, 100 mg of the sample was spread on a preweighed Petri dish and the total weight was accurately measured, then three of the sample were placed in each desiccator of Table 28. The desiccators were allowed to stand at normal temperature for 7 days and then the sample was taken to be weighed. After 13 days had passed, one of the three samples inside each desiccator was taken and the moisture content of each was measured by the thermogravimetric analysis described in Test Example 2. Equilibrium moisture content at each relative humidity is represented in FIG. 3 (3 hydrate), and FIG. 4 (1.5 hydrate). […] Both hydrates are stable since they keep a constant equilibrium moisture content regardless of the relative humidity change.

[2] = Thermal analysis (Differential Scanning Calorimetry); type: physicochemical; conditions: DSC, 10° C./min
Method: For the Differential Scanning Calorimetry, METTLER TOLEDO DSC821e and METTLER TOLEDO STARe System were used. 3.7 mg of sample was weighed into the aluminum pan, which was then press sealed with an aluminum lid. After three tiny needle holes were made on the lid, the sample was tested by heating from normal temperature to 250° C. at a rate of 10° C./min.

[3] = Moisture content according to hydration number; type: physicochemical
Method: The moisture content of the hydrate varies with the hydration number (n) of the hydrated molecule. Since the molecular weight of 7-(4-amino-methyl-3-methyloxylminopyrrolidin-1-yl)-1-cyclopropyl-6-fluoro- 4-oxo-1,4-dihydro-1,8-naphthyridine-3-carboxylic acid methanesulfonate is 485.5, the moisture content of the hydrate for n equal to 1, 1.5, 2, 2.5, 3, 3.5 or 4 is calculated to be 3.6%, […], 6.9%, 8.5%, 10.0%, 11.5% or 12.9%, respectively. However, the actual moisture content may differ from the calculated moisture content depending on differences in recrystallization conditions, drying conditions, etc.

[4] = Chemical stability under heating; conditions: for thermal stability: hydrate
Method: The anhydride and each of the hydrates was introduced into a glass vial and maintained at 70° C.

Staphylococcus aureus 77 = experiment: In vitro antibacterial activity (MIC, agar dilution), Biological Example 1; type: cell-based; conditions: 18 h; Staphylococcus aureus 77, Table 25; read-out: Minimum Inhibitory Concentration
[5] = test system: Klebsiella aerogenes 1976E; experiment: as above; type: cell-based; conditions: 18 h, Table 25, read-out: Minimum Inhibitory Concentration
[6] = test system: Escherichia coli TEM3 3455E; experiment: microbe, parasite or virus in culture; type: cell-based; conditions: TEM33455E, 18 h, read-out: Minimum Inhibitory Concentration
[7] = test system: Staphylococcus aureus giorgio; experiment: In vitro antibacterial activity (MIC, agar dilution), Biological Example 1; type: cell-based; conditions: 18 h, Table 25, read-out: Minimum Inhibitory Concentration
[8] = test system: Citrobacter diversus 2046E; experiment: as above; type: cell-based; conditions: Citrobacter koseri, 18 h, Table 25, read-out: Minimum Inhibitory Concentration
[9] = test system: Staphylococcus aureus 6538p; experiment: as above; type: cell-based; conditions: 18 h, Table 25, read-out: Minimum Inhibitory Concentration
[10] = test system: Escherichia coli TEM9 2639E; experiment: microbe, parasite or virus in culture; type: cell-based; conditions: TEM92639E, 18 h, read-out: Minimum Inhibitory Concentration
Acute oral toxicity test = conditions: in vivo, ICR male mouse, 7 days
Method: To determine the acute oral toxicity of the compounds prepared in Examples 1 and 34, the test solution containing the compounds in various concentrations were orally administered to ICR male mouse in an amount of 10 ml per kg of body weight. For 7 days after administration, the lethality and the conditions of test mouse were observed, from which LD50 value (mg/kg), was calculated.

[11] = test system: Enterobacter cloacae 1194E; experiment: microbe, parasite or virus in culture; type: cell-based; conditions: 18 h, read-out: Minimum Inhibitory Concentration
Escherichia coli 3190Y = experiment: In vitro antibacterial activity (MIC, agar dilution), Biological Example 1; type: cell-based; conditions: 18 h, Table 25, read-out: Minimum Inhibitory Concentration
Escherichia coli 851E = experiment: as above; type: cell-based; conditions: 18 h, Table 25, read-out: Minimum Inhibitory Concentration
Enterobacter cloacae P99 = experiment: microbe, parasite or virus in culture; type: cell-based; conditions: P99, 18 h, read-out: Minimum Inhibitory Concentration
[12] = test system: Klebsiella aerogenes 1082E; experiment: In vitro antibacterial activity (MIC, agar dilution), Biological Example 1; type: cell-based; conditions: 18 h, Table 25, read-out: Minimum Inhibitory Concentration
[13] = test system: Streptococcus faecalis 29212; experiment: as above; type: cell-based; conditions: Enterococcus faecalis, 18 h; Streptococcus faecalis 29212, Table 25; read-out: Minimum Inhibitory Concentration
Bacillus subtilis 6633 = experiment: as above; type: cell-based; conditions: 18 h; Bacillus subtilis 6633, Table 25; read-out: Minimum Inhibitory Concentration
[14] = test system: Staphylococcus epidermidis 887E; experiment: as above; type: cell-based; conditions: 18 h, Table 25, read-out: Minimum Inhibitory Concentration
[15] = test system: Pseudomonas aeruginosa 10145; experiment: as above; type: cell-based; conditions: 18 h; Pseudomonas aeruginosa 10145, Table 25; read-out: Minimum Inhibitory Concentration
[16] = test system: Staphylococcus epidermidis 178; experiment: as above; type: cell-based; conditions: 18 h; Staphylococcus epidermidis 178, Table 25; read-out: Minimum Inhibitory Concentration
[17] = test system: Escherichia coli TEM5 3739E; experiment: microbe, parasite or virus in culture; type: cell-based; conditions: TEM53739E, 18 h, read-out: Minimum Inhibitory Concentration
[18] = test system: Acinetobacter calcoaceticus 15473; experiment: In vitro antibacterial activity (MIC, agar dilution), Biological Example 1; type: cell-based; conditions: 18 h; Acinetobacter calcoaceticus 15473, Table 25; read-out: Minimum Inhibitory Concentration
Micrococcus luteus 9341 = experiment: as above; type: cell-based; conditions: 18 h; Micrococcus luteus 9341, Table 25; read-out: Minimum Inhibitory Concentration
[19] = test system: Pseudomonas aeruginosa 1912E; experiment: as above; type: cell-based; conditions: 18 h; Pseudomonas aeruginosa 1912E, Table 25; read-out: Minimum Inhibitory Concentration
[20] = test system: Salmonella typimurium 14028; experiment: as above; type: cell-based; conditions: 18 h; Salmonella typimurium 14028, Table 25; read-out: Minimum Inhibitory Concentration
Escherichia coli 10536 = experiment: as above; type: cell-based; conditions: 18 h; Escherichia coli 10536, Table 25; read-out: Minimum Inhibitory Concentration
[21] = test system: Staphylococcus aureus 241; experiment: as above; type: cell-based; conditions: 18 h; Staphylococcus aureus 241, Table 25; read-out: Minimum Inhibitory Concentration
gram-positive strains = conditions: background art; cited from earlier work
[22] = background art; cited from earlier work
[23] = Moisture adsorption test of the anhydride; type: physicochemical; conditions: 25° C.
Method: Under various relative humidities at 25° C., the moisture adsorption velocity and the equilibrium moisture content of the anhydride prepared in Example 203 were determined by means of an automatic moisture adsorption analyzer (MB 300 G Gravimetric Sorption Analyzer). This instrument produces a specific relative humidity at a specific temperature and continuously records the weight change of a sample due to adsorption or desorption of moisture as measured by a micro balance inside the instrument. 16 mg of the anhydride sample was loaded on the micro balance and the moisture contained in the sample was removed under a dry nitrogen stream at 50° C. A weight change of less than 5 μg per 5 minutes was the criterion for complete dryness. Thereafter, the inner temperature was adjusted to 25° C., and the sample was tested varying the relative humidity from 0 to 95% at 5% intervals. The sample was considered to have reached equilibrium at each relative humidity tested when the weight change was less than 5 μg per 5 minutes. […] In most cases, the equilibrium was reached within 2 hours.

[24] = Humidification of the anhydride with humidified nitrogen (Example 205); type: physicochemical
Method: A sonicator filled with water was adjusted to 40° C. and was sealed with a lid. Then, a nitrogen introducing tube and a nitrogen excreting tube were connected to the vessel. When the pressure of the dried nitrogen introduced through the nitrogen introducing tube was adjusted to 20 psi, the relative humidity of the humidified nitrogen excreted through the excreting tube was more than 93%. […] Samples were taken after 0, 5, 10, 20, 30, and 60 minutes, respectively, and the moisture content with the lapse of time was measured. From the results shown in FIG. 8, it can be seen that moisture content of about 10% is constantly maintained when the humidifying procedure is carried out over 30 minutes. The X-ray diffraction pattern of the humidified sample was identical to that the 3 hydrate obtained after recrystallization.

| SMILES | MIC (Staphylococcus aureus 77) [ng/mL] | MIC [5] [µg/mL] | MIC [6] [µg/mL] | MIC [7] [ng/mL] | MIC [8] [µg/mL] | MIC [9] [ng/mL] | MIC [10] [µg/mL] | LD50 at 168 h (Acute oral toxicity test) [mg/kg] | MIC [11] [µg/mL] | MIC (Escherichia coli 3190Y) [ng/mL] | MIC (Escherichia coli 851E) [µg/mL] | MIC (Enterobacter cloacae P99) [µg/mL] | MIC [12] [µg/mL] | MIC [13] [µg/mL] | MIC (Bacillus subtilis 6633) [ng/mL] | MIC [14] [ng/mL] | MIC [15] [µg/mL] | MIC [16] [µg/mL] | MIC [17] [µg/mL] | MIC [18] [µg/mL] | further results |
| --- | --- | --- | --- | --- | --- | --- | --- | --- | --- | --- | --- | --- | --- | --- | --- | --- | --- | --- | --- | --- | --- |
| CON=C1CN(c2nc3c(cc2F)c(=O)c(C(=O)O)cn3C2CC2)CC1CN (centres unmarked) [3 hydrate, 7-(4-aminomethyl-3-methyloxyiminopyrrolidin-1-yl)-1-cyclopropyl-6-fluoro-4-oxo-1,4-dihydro-1,8-naphthyridine-3-carboxylic acid methanesulfonate·3 hydrate] |  |  |  |  |  |  |  |  |  |  |  |  |  |  |  |  |  |  |  |  | stability of hydrate towards relative humidity change [1]: stable; equilibrium moisture content ([1]; whole relative humidity range tested (23 to 75%)): around 10%; onset of endothermic peak (vaporization of water) [2]: around 50 °C; Moisture Content ([3]; actual moisture content, methanesulfonate hydrates, hydrate): 9-11%; change of moisture content ([3]; among stable hydrates): lowest; thermal stability compared with the anhydride ([4]; 70° C., Table 29): the same degree of thermal stability as the anhydride; thermal stability ([4]; 40320 min): 94%; thermal stability [4]: 97% |
| NCC1CN(c2c(F)cc3c(=O)c(C(=O)O)cn(C4CC4)c3c2Cl)CC1=NOCc1ccccc1 (centres unmarked) [Example 34, 7-(4-aminomethyl-3-benzyoxyimino-pyrrolidin-1-yl)-8-chloro-1-cyclopropyl-6-fluoro-1,4-dihydro-4-oxo-guinoline-3-carboxylic acid] | ≤ 8 | 0.5 (≈ 1 µM) | 1 (≈ 2 µM) | ≤ 8 | 0.25 (≈ 0.501 µM) | ≤ 8 | 0.13 (≈ 0.261 µM) | > 3000 | 0.25 (≈ 0.501 µM) | ≤ 8 | 0.13 (≈ 0.261 µM) | 0.063 (≈ 0.126 µM) | 0.031 (≈ 0.0621 µM) | 0.13 (≈ 0.261 µM) | ≤ 8 | ≤ 8 | 2 (≈ 4.01 µM) | 2 (≈ 4.01 µM) | 0.5 (≈ 1 µM) | 0.031 (≈ 0.0621 µM) | MIC (Micrococcus luteus 9341): 0.13 µg/mL (≈ 0.261 µM); MIC [19]: 0.5 µg/mL (≈ 1 µM); MIC [20]: 0.063 µg/mL (≈ 0.126 µM); MIC (Escherichia coli 10536): 0.016 µg/mL (≈ 0.0321 µM); MIC [21]: 4 µg/mL (≈ 8.02 µM) |
| CCn1cc(C(=O)O)c(=O)c2cc(F)c(N3CCNCC3)cc21 [norfloxacin] |  |  |  |  |  |  |  |  |  |  |  |  |  |  |  |  |  |  |  |  | antibacterial activity against gram-positive strains (gram-positive strains): weak antibacterial activity against gram-positive strains; distribution and absorption in living body [22]: poor distribution and absorption in living body |
| NCC1CN(c2nc3c(cc2F)c(=O)c(C(=O)O)cn3C2CC2)CC1=NOCc1ccccc1 (centres unmarked) [Example 1, 7-(4-aminomethyl-3-benzyloxyimino-pyrrolidin-1-yl)-1-cyclopropyl-6-fluoro-1,4-dihydro-4-oxo-1,8-naphthyridine-3-carboxylic acid] | ≤ 8 | 0.25 (≈ 0.537 µM) | 0.25 (≈ 0.537 µM) | ≤ 8 | 0.063 (≈ 0.135 µM) | ≤ 8 | 0.063 (≈ 0.135 µM) | > 3000 | 0.031 (≈ 0.0666 µM) | ≤ 8 | 0.016 (≈ 0.0344 µM) | ≤ 0.008 | 0.063 (≈ 0.135 µM) | 0.031 (≈ 0.0666 µM) | ≤ 8 | ≤ 8 | 2 (≈ 4.3 µM) | 2 (≈ 4.3 µM) | 0.063 (≈ 0.135 µM) | ≤ 0.008 | MIC (Micrococcus luteus 9341): 0.063 µg/mL (≈ 0.135 µM); MIC [19]: 1 µg/mL (≈ 2.15 µM); MIC [20]: 0.13 µg/mL (≈ 0.279 µM); MIC (Escherichia coli 10536): ≤ 0.008 µg/mL; MIC [21]: 2 µg/mL (≈ 4.3 µM) |
| CON=C1CN(c2nc3c(cc2F)c(=O)c(C(=O)O)cn3C2CC2)CC1CN (centres unmarked) [anhydride, 7-(4-aminomethyl-3-methyloxyiminopyrrolidin-1-yl)-1-cyclopropyl-6-fluoro-4-oxo-1,4-dihydro-1,8-naphthyridine-3-carboxylic acid methanesulfonate anhydride] |  |  |  |  |  |  |  |  |  |  |  |  |  |  |  |  |  |  |  |  | moisture adsorption ([23]; relative humidity 0 to 95%): Initial moisture adsorption proceeded very speedily at each relative humidity tested; also recorded: the equilibrium moisture content is dependent upon the relative humidity; time to reach moisture adsorption equilibrium ([23]; relative humidity 0 to 95% at 5% intervals, in most cases): ≤ 2 h; Moisture Content ([24]; before humidification): about 2.5%; Moisture Content ([24]; humidified nitrogen, over 30 minutes, FIG. 8): about 10%; endothermic peak [2]: without any endothermic peak |
